Assay results published in article PMC6100724, “Proteome‐wide analysis of phospho‐regulated PDZ domain interactions” (Molecular Systems Biology, 2018).

Columns and labels:
Assay in all cases: Phosphomimetic ProP-PD selection with NGS
Scribble PDZ3 = type: binding, human; details: bait Scribble PDZ3
Description: (§1) Phage selections were carried out for four rounds following a protocol by Huang and Sidhu (Huang & Sidhu, 2011) with minor modifications. Non‐specific binding phage was removed by pre‐selections against immobilized GST throughout the selection. The selections against the (pre‐)phosphorylated wild‐type library were performed in 50 mM HEPES (pH 7.4) and 150 mM NaCl (HBS) following the same procedure after pre‐phosphorylation of the library.
(§2) • Immobilize proteins (15 μg in 100 μl PBS) in a 96‐well MaxiSorp microtiter plate (NUNC) overnight at 4°C. • Start a 2YT culture of E. coli Omnimax supplemented with 100 μg/ml tetracycline to retain the F pilus epitope. • Block the wells with 200 μl 0.5% BSA in PBS for 2 h at 4°C. • Precipitate naïve phage library (10^11 cfu per selection) or amplified phage pool from the previous round of selection by adding one‐fifth the volume of PEG/NaCl. • Incubate on ice for 10 min, and pellet precipitated phage by centrifugation at 5,300 g for 15 min. Resuspend the phage pellet in 100 μl PBS per selection. • Add 100 μl of phage solution to the GST‐coated pre‐selection wells and incubate for 1 h. • Transfer the phage solution to the immobilized target proteins and allow it to bind for 2 h at 8°C. • Wash the plate four times with 200 μl cold wash buffer (PBS, 0.05% Tween‐20). • Elute bound phage by incubation with 100 μl log phase (0.6–0.8 OD600) E. coli Omnimax for 30 min at 37°C with shaking (200 RPM). • Add 10^12 cfu/ml M13K07 helper phage for hyperinfection of the bacteria and incubate as above for 45 min. • Transfer the bacterial culture to 10 ml 2YT supplemented with 50 μg/ml carbenicillin, 25 μg/ml kanamycin, and 300 μM IPTG and incubate overnight at 37°C while shaking. • Perform phage pool ELISA to monitor the progress of the selection as described previously (Huang & Sidhu, 2011).
(§3) The naïve library and the enriched phage pools of the third day of selection were amplified and barcoded by PCR and analyzed by NGS as described elsewhere (McLaughlin & Sidhu, 2013; Ivarsson et al, 2014). The reads were demultiplexed using the barcode sequences and filtered by discarding sequences with a Phred quality score under 30. Sequences were mapped to the original library using Bowtie (Langmead et al, 2009) with two mismatches between reads and library sequence. Nucleotide mutations leading to amino acid substitutions were subsequently removed. Cutoff values of NGS counts were assigned for each pool. PWMs were generated based on the remaining peptides (aligned on the C‐termini) using WebLogo (Crooks et al, 2004).
(§4) However, there was no significant correlation of the actual read counts (selection “strength”) and the initial representation in the library, reflecting the strong selection during phage display (wt+mimetic: P‐value: 0.49, ρ = −0.08, mimetic only: P‐value: 0.069, ρ = −0.2, wt only: P‐value: 0.12, ρ = 0.17). Consequently, the amount of reads for each binder after phage display is not a function of the amount of input reads in the naïve library and no modeling based on the input library frequencies to score the interactions is necessary. To allow for comparison between replicate selections, we used the fraction of NGS reads within a certain set, instead of the absolute number of NGS reads, as the absolute numbers differ between different NGS batches.

Scribble PDZ1 = biological target: T1, Scribble PDZ1 (Homo sapiens, UniProt Q14160); type: binding; details: for Mean fraction #NGS counts wt peptide / total counts selection / Mean fraction #NGS counts mimetic peptide / total count selection: bait Scribble PDZ1, mean of selections 1-3
T1 construct: human Scribble PDZ1 aa 719–829 in; made in house; host or cells: E. coli BL21 Gold (DE3)
T1 sequence (Q14160 719-829): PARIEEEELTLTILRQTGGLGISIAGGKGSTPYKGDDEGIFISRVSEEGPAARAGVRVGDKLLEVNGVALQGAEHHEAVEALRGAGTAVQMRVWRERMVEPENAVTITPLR
Description: as §1, §2, §3, §4

DLG1 PDZ2 = biological target: T2, DLG1 PDZ2 (Homo sapiens, UniProt Q12959); type: binding; details: mean of selections 1-3, bait DLG1 PDZ2
T2 construct: human DLG1 PDZ2 aa 311–407 in a modified pRSET vector 40; made in house; host or cells: E. coli BL21 Gold (DE3)
T2 sequence (Q12959 311-407): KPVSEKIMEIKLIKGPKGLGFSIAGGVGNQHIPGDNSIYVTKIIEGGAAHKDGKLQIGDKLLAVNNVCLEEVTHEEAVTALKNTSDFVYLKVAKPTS
Description: as §1, §2, §3, §4

[1] = mean of selections 1-3, phosphomimetic peptide
[2] = mean of selections 1-3, wild type peptide

Substance: IPLTRETTF
- Mean fraction #NGS counts mimetic peptide / total count selection (Scribble PDZ3; mean over selections 1-3): 0.0004175

Substance: ISWLAFSVL
- Mean fraction #NGS counts wt peptide / total counts selection (Scribble PDZ1): 0

Substance: RPHTNETSL
- Mean fraction #NGS counts wt peptide / total counts selection (Scribble PDZ1): 0.0005328
- Mean fraction #NGS counts wt peptide / total counts selection (Scribble PDZ3; mean over selections 1-3): 0.0004079

Substance: PIHELETEL
- Mean fraction #NGS counts mimetic peptide / total count selection (Scribble PDZ3; [1]): 0.0005099

Substance: TMFLRETEL‐coo‐
- occurrence in NGS of the selection relative to wild‐type counterpart (Scribble PDZ1; phage-displayed peptide, phosphomimetic ProP‐PD selection against Scribble PDZ1): three times more

Substance: PIHSLETSL
- Mean fraction #NGS counts wt peptide / total counts selection (Scribble PDZ1): 0.0009794
- Mean fraction #NGS counts wt peptide / total counts selection (Scribble PDZ3; [2]): 0.001163
- Mean fraction #NGS counts wt peptide / total counts selection (Scribble PDZ3; mean over selections 1-3): 0.001163

Substance: PLHSLETEL
- Mean fraction #NGS counts mimetic peptide / total count selection (Scribble PDZ1): 0.01704
- Mean fraction #NGS counts mimetic peptide / total count selection (Scribble PDZ3; mean over selections 1-3): 0.01661

Substance: ISYRREEAI
- Mean fraction #NGS counts mimetic peptide / total count selection (Scribble PDZ3; mean over selections 1-3): 0

Substance: VRKLPETTL
- Mean fraction #NGS counts mimetic peptide / total count selection (Scribble PDZ3; mean over selections 1-3): 0.002417

Substance: SRKRTESFL
- Mean fraction #NGS counts mimetic peptide / total count selection (Scribble PDZ3; mean over selections 1-3): 0.0004518

Substance: RATEWYSPY
- Mean fraction #NGS counts mimetic peptide / total count selection (DLG1 PDZ2): 0

Substance: LSIEKETKL
- Mean fraction #NGS counts wt peptide / total counts selection (Scribble PDZ3; mean over selections 1-3): 0.01518

Substance: DSSILSTVV
- Mean fraction #NGS counts wt peptide / total counts selection (DLG1 PDZ2): 0.0001102

Substance: RSEMKPGFV
- Mean fraction #NGS counts mimetic peptide / total count selection (DLG1 PDZ2; phosphomimetic peptide): 0

Substance: GEGGRQSVV
- Mean fraction #NGS counts mimetic peptide / total count selection (DLG1 PDZ2; phosphomimetic peptide): 9.343e-5

Substance: VREKLPSNL
- Mean fraction #NGS counts mimetic peptide / total count selection (Scribble PDZ1): 0

Substance: ISYRRESAI
- Mean fraction #NGS counts mimetic peptide / total count selection (DLG1 PDZ2): 0
- Mean fraction #NGS counts wt peptide / total counts selection (DLG1 PDZ2): 1.436e-5
- Mean fraction #NGS counts wt peptide / total counts selection (Scribble PDZ3; mean over selections 1-3): 0.0002548

Substance: HEIKQSTAV
- Mean fraction #NGS counts mimetic peptide / total count selection (DLG1 PDZ2; phosphomimetic peptide): 0

Substance: KEEPFLTWL
- Mean fraction #NGS counts mimetic peptide / total count selection (Scribble PDZ3; mean over selections 1-3): 0.001054

Substance: VKRLLESVF
- Mean fraction #NGS counts mimetic peptide / total count selection (Scribble PDZ1): 0.005379

Substance: LRLQSETSV
- Mean fraction #NGS counts wt peptide / total counts selection (DLG1 PDZ2): 3.877e-6

Substance: LKSGRDSTV
- Mean fraction #NGS counts mimetic peptide / total count selection (DLG1 PDZ2): 0
- Mean fraction #NGS counts wt peptide / total counts selection (DLG1 PDZ2): 0.0003449

Substance: PTHVLQTQI
- Mean fraction #NGS counts wt peptide / total counts selection (Scribble PDZ1): 0

Substance: VKRLLSSVF
- Mean fraction #NGS counts wt peptide / total counts selection (Scribble PDZ1): 0

Substance: KKRMVEEPL
- Mean fraction #NGS counts mimetic peptide / total count selection (Scribble PDZ3; mean over selections 1-3): 0

Substance: LRLQSETEV
- Mean fraction #NGS counts mimetic peptide / total count selection (DLG1 PDZ2): 7.62e-5

Substance: ERLEYEETL
- Mean fraction #NGS counts mimetic peptide / total count selection (Scribble PDZ3; mean over selections 1-3): 0

Substance: PEHVLQTQI
- Mean fraction #NGS counts mimetic peptide / total count selection (Scribble PDZ1): 0.0001068

Substance: NSTNMESEL
- Mean fraction #NGS counts mimetic peptide / total count selection (Scribble PDZ3; [1]): 0.001938

Substance: SATSVHTSV
- Mean fraction #NGS counts wt peptide / total counts selection (DLG1 PDZ2; wild type peptide): 0.0005933

Substance: RSSMKPGFV
- Mean fraction #NGS counts wt peptide / total counts selection (DLG1 PDZ2; wild type peptide): 0.02056

Substance: KYVDAETSL
- Mean fraction #NGS counts wt peptide / total counts selection (Scribble PDZ3; [2]): 0.0001259

Substance: RPLRREEEI
- Mean fraction #NGS counts mimetic peptide / total count selection (Scribble PDZ3; mean over selections 1-3): 0

Substance: MRLQEETEV
- Mean fraction #NGS counts mimetic peptide / total count selection (DLG1 PDZ2): 0.0001421

Substance: KSEPFLTWL
- Mean fraction #NGS counts wt peptide / total counts selection (Scribble PDZ3; mean over selections 1-3): 0.002017

Substance: SQSRMETNM
- Mean fraction #NGS counts mimetic peptide / total count selection (Scribble PDZ3; mean over selections 1-3): 0.0002587

Substance: ERLEYETEL
- Mean fraction #NGS counts mimetic peptide / total count selection (Scribble PDZ3; [1]): 3.548e-5
